Measurements from article PMC6650409, “Modeling the binding of diverse ligands within the Ah receptor ligand binding domain” (Scientific Reports, 2019).
Positions count from the first letter of the chain named. Like-named read-outs stand apart in the source and are kept apart here.

What was measured:
M342A mutant AhR = molecular target: T1, M342A mutant AhR (Mus musculus, UniProt P30561, M342A); assay: [3H]TCDD competitive ligand binding, M342A mutant AhR; details: for change of relative binding affinity versus wild-type AhR: M342A substitution, in words; for IC50: Table S6, AhR mutant M342A
T1 construct: made in house; host or cells: in vitro, Promega TNT Quick rabbit reticulocyte lysate
T1 sequence (P30561 10-848 M342A): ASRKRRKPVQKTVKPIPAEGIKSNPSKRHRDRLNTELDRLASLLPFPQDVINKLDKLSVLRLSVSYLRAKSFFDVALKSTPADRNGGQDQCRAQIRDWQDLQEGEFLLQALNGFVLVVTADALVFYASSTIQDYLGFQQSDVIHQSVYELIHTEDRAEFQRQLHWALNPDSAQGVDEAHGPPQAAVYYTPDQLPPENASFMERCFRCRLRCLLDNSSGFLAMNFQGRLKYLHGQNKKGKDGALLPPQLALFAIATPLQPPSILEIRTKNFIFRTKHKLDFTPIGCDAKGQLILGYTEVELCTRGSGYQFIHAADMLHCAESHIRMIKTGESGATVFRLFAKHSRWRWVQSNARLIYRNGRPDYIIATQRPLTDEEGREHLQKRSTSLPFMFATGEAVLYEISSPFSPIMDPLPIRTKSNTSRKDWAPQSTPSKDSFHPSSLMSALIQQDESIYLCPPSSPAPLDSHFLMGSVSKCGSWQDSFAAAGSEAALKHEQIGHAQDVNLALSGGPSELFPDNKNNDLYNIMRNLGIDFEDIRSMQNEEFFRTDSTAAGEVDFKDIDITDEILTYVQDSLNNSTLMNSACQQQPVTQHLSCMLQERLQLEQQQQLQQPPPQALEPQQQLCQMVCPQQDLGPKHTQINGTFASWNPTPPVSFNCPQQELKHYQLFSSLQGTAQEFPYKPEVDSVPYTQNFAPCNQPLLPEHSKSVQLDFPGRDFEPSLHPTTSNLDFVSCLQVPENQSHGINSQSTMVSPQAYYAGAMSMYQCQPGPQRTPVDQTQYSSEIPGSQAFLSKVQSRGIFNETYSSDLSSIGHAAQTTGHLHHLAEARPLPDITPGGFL
Procedure: (§1) The mouse AhR (mAhR) and ARNT (mARNT) expression plasmids, mβAhR/pcDNA3 and mβArnt/pcDNA3, have been previously described. Point mutations of mβAhR/pcDNA3 were carried out using the QuikChange Lightning Mutagenesis Kit (Agilent Technologies) and all constructs were verified by sequencing.
(§2) [^3H]TCDD specific binding to wild-type or mutant mAhRs synthesized in vitro using the Promega TNT Quick coupled transcription/translation rabbit reticulocyte lysate kit (Madison, WI) was carried out as previously described. [^3H]TCDD specific binding was determined by subtracting the amount of [^3H]TCDD bound to unprogrammed lysate (nonspecific binding) from the total amount of [^3H]TCDD binding to lysate containing in vitro expressed AhR. The amount of [^3H]TCDD specific binding remaining in the presence of the indicated competitor chemical was expressed as a percent of the total [^3H]TCDD specific binding. The relative binding affinity (IC50) of each chemical was determined from concentration-dependent competitive inhibition curves obtained using [^3H]TCDD and increasing concentrations of each test chemical and the mean IC50 value was determined using three-parameter non-linear regression.

P291L AhR = molecular target: T2, P291L AhR (Mus musculus, UniProt P30561, P291L); assay: [3H]TCDD competitive ligand binding, P291L mutant AhR; details: for change of relative binding affinity versus wild-type AhR: P291L substitution, in words
T2 construct: made in house; host or cells: in vitro, Promega TNT Quick rabbit reticulocyte lysate
T2 sequence (P30561 10-848 P291L): T1 sequence (P30561 10-848 M342A) with P282L, A333M
Procedure: as §1, §2

[1] = Table S6, AhR mutant P291L, read-out: IC50

Row | Compound | change of relative binding affinity versus wild-type AhR (M342A mutant AhR) | IC50 (M342A mutant AhR) | change of relative binding affinity versus wild-type AhR (P291L AhR) | IC50 (P291L AhR; [1]) | IC50 (P291L AhR; P291L AhR, read-out: relative affinity (IC50))
1 | Cc1ccc2cc3c(ccc4ccccc43)c3c2c1CC3 [3MC, 3-methylcholanthrene] | reduced | 248 nM |  |  | 
2 | O=c1cc(-c2ccccc2)oc2ccc3ccccc3c12 [BNF] | not affected | 9.6 nM |  |  | 
3 | c1ccc2c(c1)cc1ccc3cccc4ccc2c1c34 [BaP, Benzo(a)pyrene] |  |  | not statistically significant | 604 nM | 
4 | c1ccc2c(c1)ccc1cc3c(ccc4ccccc43)cc12 [DBA, dibenz(a,h)anthracene] | not affected | 6.72 nM |  |  | 
5 | O=Cc1c2[nH]c3ccccc3c2cc2[nH]c3ccccc3c12 [FICZ, 6-formylindolo[3,2-b]carbazole] |  | 0.0207 nM |  |  | 
6 | Clc1ccc(-c2cc(Cl)c(Cl)c(Cl)c2)cc1Cl [PCB126, 3,3′4,4′5-pentachlorobiphenyl] | reduced | 9.33 nM |  |  | 
7 | Clc1cc2oc3cc(Cl)c(Cl)cc3c2cc1Cl [TCDF, 2,3,7,8-tetrachlorodibenzofuran] |  |  | dramatically enhanced | 0.0435 nM | 0.04 nM
